Data: patent publication US20200148718A1, “PHARMACEUTICAL-GRADE 20-HYDROXYECDYSONE EXTRACT, USE OF SAME AND PREPARATION THEREOF” (BIOPHYTIS, priority 2017, published 2020)
Each block holds one molecule with its values, some of them ahead of it.

Key:
[1] = Phase I clinical trial, single administrations (SAD), plasma pharmacokinetics; type: in vivo, humans; conditions: SAD cohorts, FIG. 3
Procedure: In the context of a phase I clinical trial, the plasma concentrations of BIO101 were measured after single administrations (SAD) of 100, 350, 700 and 1400 mg/day in individuals on an empty stomach. Repeated administrations (MAD) over 14 days were then carried out with a single daily dose of 350 mg or with two daily doses (morning and evening) of 350 mg and 450 mg. These administrations of BIO101 to various cohorts of volunteers (n=6) allowed to determine the main pharmacokinetic parameters of BIO101: Cmax (maximum plasma concentration of BIO101 after single or repeated), Cmin (minimum plasma concentration of BIO101 after single or repeated administration), Tmax (time necessary to reach the maximum plasma concentration of BIO101 after single or repeated administration), and AUC (Area under curve) synonymous with level of plasma exposure.
The average profile of the cohorts of the SAD is presented in FIG. 3 in which Y are young volunteers and O are volunteers, the age of which is between 65 and 85 years. […] The half-life of the 20E is approximately 3-4 hours.

[2] = pure molecule, data of the literature; cited from earlier work
[3] = test system: nuclear receptors of the androgens or of the oestrogens; conditions: Lapenna et al., 2015; cited from earlier work
[4] = Bioavailability with respect to 20E; conditions: relative to 20E

Bioavailability [1]: low bioavailability | Elimination of the active ingredient from plasma [1]: almost totally disappears after 24 hours | Half-life [1]: 3 to 4 h
Compound: CC(C)(O)CC[C@@H](O)[C@](C)(O)[C@H]1CC[C@@]2(O)C3=CC(=O)[C@@H]4C[C@@H](O)[C@@H](O)C[C@]4(C)[C@H]3CC[C@]12C [20E, 20-hydroxyecdysone]
Cytotoxicity [2]: slightly cytotoxic

Compound: CC12CC(O)C(O)CC1C(=O)C=C1C2CCC2(C)C(O)CCC12O (centres unmarked) [dihydrorubrosterone, Dihydrorubrosterone]
Interaction with nuclear receptors of the androgens or of the oestrogens [3]: capable of interacting

Compound: CC(=O)[C@H]1CC[C@@]2(O)C3=CC(=O)[C@@H]4C[C@@H](O)[C@@H](O)C[C@]4(C)[C@H]3CC[C@]12C [poststerone, Poststerone]
Bioavailability with respect to 20E [4]: approximately twenty times better | Interaction with nuclear receptors of the androgens or of the oestrogens [3]: capable of interacting

Compound: C[C@]12C[C@H](O)[C@H](O)C[C@H]1C(=O)C=C1[C@@H]2CC[C@]2(C)C(=O)CC[C@@]12O [rubrosterone, Rubrosterone]
Interaction with nuclear receptors of the androgens or of the oestrogens [3]: capable of interacting
